The text below walks through data of BindingDB's records for doi:10.1016/j.bmc.2014.11.013 (University Medical Center Groningen, 2014).

SMILES strings stand for the structures.

This test in a line: Inhibition of human recombinant ADAM17 using Mca-PLAQAV-Dpa-RSSSR-NH2.

For orientation: IC50 means the concentration needed to halve the response being measured. In the case of `CC(C)C[C@H](CC(=O)NO)C(=O)N[C@@H](Cc1ccccc1)C(=O)N[C@@H](CCCCN)C(N)=O`, the 50% inhibitory concentration (IC50) turned out to be 0.0057 µM.
To `CC(C)C[C@H](CC(=O)NO)C(=O)N[C@@H](Cc1ccccc1)C(=O)N[C@@H](CCCCNC(=O)c1ccc(F)cc1)C(N)=O` belongs 0.025 µM.
